Each structure is given as a SMILES string.

Five compounds from patent publication US11617762B2, “Compositions comprising sulfated polysaccharides” (SEANERGY DERMATOLOGY LTD., priority 2016, dated 2023) can be followed below.

The subject of assay [1] is TNFα secretion in RAW 264.7 cells. The assay can be described thus: LPS-induced TNFα secretion by RAW 264.7 macrophage cells (ELISA). It counts as cell-based. The note with it: LPS 1 μg/ml, 24 hr.
Experimental: The potential for synergistic interaction was tested by assaying inflammatory mediator secretion by a macrophage cell line (RAW 264.7), following stimulation with lipopolysaccharide (LPS). […] RAW 264.7 monocyte macrophage cells (approximately 4×10^5/ml) were seeded in 24 well plates containing 800 microliters/well of complete growth medium (DMEM containing 2 mM glutamine, 100 U/ml penicillin and 100 μg/ml streptomycin and 10% fetal bovine serum). The cells were then incubated at 37 degrees Celsius with 5% carbon dioxide for 24 h. At the end of this period, growth medium supplemented with 1 μg/ml lipopolysaccharide (LPS) was added to the cells, together with the test substances (SPS, anti-inflammatory drugs and their combinations) and various controls), and the cells were then incubated for a further 24 hr. period under the same conditions as before. Following this incubation period, the conditioned medium was aspirated from the various test and control wells and centrifuged at 14,000 g for 5 minutes to remove particulate matter. The clear supernatants were then stored at −70 degrees Celsius prior to assaying the inflammatory mediatory content therein. The cytokine/mediator content in the thawed supernatants was assayed using standard ELISA kits for TNFα, IL-6 and PGE2 (BioLegend Inc., San Diego, Calif., USA). Method: Raw 264.7 macrophage cells were incubated (as described above) in the absence or presence of LPS and treated without or with the SPS (Porphyridium C. SPS), Dexamethasone or a combination thereof for 24 hr. Then, TNFα levels in the spent medium were quantified by ELISA, as explained above. DMSO were used as vehicle. Methods: Hydrocortisone, Mometasone furoate and Porphyridium SPS were tested alone and in combination, according to the methods described hereinabove, in order to assess the effect of these various treatments on TNFα secretion in RAW 264.7 cells. Methods: Dexamethasone alone, SPS obtained from brown algae and green algae alone, and combinations of dexamethasone with the SPS, were tested, as described hereinabove, in order to assess the effect of these various treatments on TNFα secretion in RAW 264.7 cells.
Assay [2] concerns PGE2 secretion in RAW 264.7 cells. The assay can be described thus: LPS-induced prostaglandin E2 secretion by RAW 264.7 macrophage cells (ELISA). It counts as cell-based.
Experimental: The potential for synergistic interaction was tested by assaying inflammatory mediator secretion by a macrophage cell line (RAW 264.7), following stimulation with lipopolysaccharide (LPS). The inflammatory mediators assayed were: tumor necrosis factor—alpha (TNF-alpha), interleukin 6 (IL-6) and prostaglandin E2 (PGE2). RAW 264.7 monocyte macrophage cells (approximately 4×10^5/ml) were seeded in 24 well plates containing 800 microliters/well of complete growth medium (DMEM containing 2 mM glutamine, 100 U/ml penicillin and 100 μg/ml streptomycin and 10% fetal bovine serum). The cells were then incubated at 37 degrees Celsius with 5% carbon dioxide for 24 h. At the end of this period, growth medium supplemented with 1 μg/ml lipopolysaccharide (LPS) was added to the cells, together with the test substances (SPS, anti-inflammatory drugs and their combinations) and various controls), and the cells were then incubated for a further 24 hr. period under the same conditions as before. Following this incubation period, the conditioned medium was aspirated from the various test and control wells and centrifuged at 14,000 g for 5 minutes to remove particulate matter. The clear supernatants were then stored at −70 degrees Celsius prior to assaying the inflammatory mediatory content therein. The cytokine/mediator content in the thawed supernatants was assayed using standard ELISA kits for TNFα, IL-6 and PGE2 (BioLegend Inc., San Diego, Calif., USA). […] SPS was also investigated on Prostaglandin E2 (PGE2) secretion, as an independent inflammation marker derived from arachidonic acid metabolism. Raw 264.7 macrophage cells were incubated (as described above) in the absence or presence of LPS and treated without or with the SPS (Porphyridium C. SPS), Indomethacin or a combination thereof for 24 hr. Then, PGE2 levels in the supernatant medium were quantified by ELISA, as explained above. DMSO were used as vehicle. […]

Broadly, the inhibition is the percentage by which the read-out fell short of the control. The compound `C[C@@H]1C[C@H]2[C@@H]3CCC4=CC(=O)C=C[C@]4(C)[C@@]3(F)[C@@H](O)C[C@]2(C)[C@@]1(O)C(=O)CO` [Dexamethasone] yielded an inhibition at 1 µM in assay [1] (Mus musculus, RAW264.7, Table 2, TNFα, 1.0 μM alone) of 34%. The “TNFα concentration (ng/ml)” value in assay [1] (Table 2, 1.0 μM alone) is recorded as 7,400 ng/ml.

Consider `O=C(O)Cc1ccccc1Nc1c(Cl)cccc1Cl` [Diclofenac], for which the inhibition at 0.1 µM in assay [2] (Mus musculus, RAW264.7, Table 3, PGE2, 0.1 μM alone, LPS 1 μg/ml, 24 hr) was determined as 7.5%. Also, the PGE2 in assay [2] (Table 3, 0.1 μM alone, LPS 1 μg/ml, 24 hr) is reported as 3,700.

For `C[C@]12CCC(=O)C=C1CC[C@@H]1[C@@H]2[C@@H](O)C[C@@]2(C)[C@H]1CC[C@]2(O)C(=O)CO` [Hydrocortisone], in assay [1] (Mus musculus, RAW264.7, Table 1, TNFα, 5.0 μM alone, read-out: % inhibition (mean; n = 3)), the inhibition at 5 µM came to 27%. In assay [1] (Table 1, 5.0 μM alone), the “TNFα concentration (ng/ml)” value is 8,200 ng/ml.

`C[C@@H]1C[C@H]2[C@@H]3CCC4=CC(=O)C=C[C@]4(C)[C@@]3(Cl)[C@@H](O)C[C@]2(C)[C@@]1(OC(=O)c1ccco1)C(=O)CCl` [Mometasone furoate]: the inhibition at 0.5 µM in assay [1] (Mus musculus, RAW264.7, Table 1, TNFα, 0.5 μM alone, read-out: % inhibition (mean; n = 3)) is 32%. Moreover, the “TNFα concentration (ng/ml)” value in assay [1] (Table 1, 0.5 μM alone) was 7,600 ng/ml.

On to `COc1ccc2c(c1)c(CC(=O)O)c(C)n2C(=O)c1ccc(Cl)cc1` [indomethacin, Indomethacin], for which the “effect on LPS-stimulated Prostaglandin E2 secretion (in words)” value in assay [2] (Example 3, FIG. 3, used alone) is “inhibited LPS-stimulated Prostaglandin E2 secretion to a certain degree, although this effect was not statistically significant”.
